Where two headings read alike, the source gives them in different places.
Legend:
[1] = target: Mcl-1 protein (UniProtKB primary accession number: Q07820) (Homo sapiens, UniProt Q07820); test: Inhibition of Mcl-1 by fluorescence polarisation, Method 1; type: binding; settings: read-out: IC50 (M) Mcl-1 FP
Outline: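 FP competition, 11-point compound titration in 5% final DMSO; protein and labelled probe at 5 nM and 1 nM final in HEPES/NaCl/Tween 20 buffer, pH 7.4.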

[2] = system: AMO-1 multiple myeloma cells; test: Quantification of the cleaved form of PARP in vivo (MSD ELISA, tumour lysates); set-up: species or system mice (SCID strain); settings: activation factor: cleaved PARP in treated mice / control mice, AMO-1 xenograft in SCID mice, intraveinous or oral routes
Outline: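 SCID mice bearing subcutaneous AMO-1 xenografts (1.10^7 cells) dosed intravenously or orally 12 to 14 days after grafting. Cleaved PARP in tumour lysates measured by MSD ELISA. Reported as activation factor, the ratio of treated to control cleaved PARP.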

[3] = system: H929 multiple myeloma tumour line; test: In vitro cytotoxicity, Microculture Tetrazolium Assay; type: cell-based; settings: Homo sapiens, NCI-H929, 48 h, H929 cells, 48 hours exposure, read-out: IC50 (μM) MTT H929
Description: The cytotoxicity studies were carried out on the H929 multiple myeloma tumour line.
The cells are distributed onto microplates and exposed to the test compounds for 48 hours.

[4] = fluorescence polarisation test, Method 1, or Method 2 where the value is underlined (underlining not visible)

Sequence of Mcl-1 protein (Q07820 whole entry): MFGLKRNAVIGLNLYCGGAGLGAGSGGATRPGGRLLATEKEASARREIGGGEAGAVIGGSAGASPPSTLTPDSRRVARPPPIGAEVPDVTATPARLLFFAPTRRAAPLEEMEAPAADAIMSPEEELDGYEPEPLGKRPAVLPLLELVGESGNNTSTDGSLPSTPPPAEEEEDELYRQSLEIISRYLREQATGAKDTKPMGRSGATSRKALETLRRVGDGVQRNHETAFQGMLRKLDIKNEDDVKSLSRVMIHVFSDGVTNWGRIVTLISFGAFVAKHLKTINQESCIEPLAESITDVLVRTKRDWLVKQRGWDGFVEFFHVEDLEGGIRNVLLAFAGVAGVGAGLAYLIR

Row | Structure (SMILES) | IC50 ([1]; fluorescence polarisation, Method 1, or Method 2) | PARP fold [2] | IC50 ([3]; MTT) | IC50 [1, 4] | IC50 ([3]; cell viability)
1 | COCCOC(=O)C(Cc1ccccc1OCc1ccnc(-c2ccccc2OC)n1)Oc1ncnc2sc(-c3ccc(F)cc3)c(-c3ccc(OCCN4CCN(C)CC4)c(Cl)c3C)c12 [Example 789, 2-methoxyethyl (2R)-2-{[(5Sa)-5-{3-chloro-2-methyl-4-[2-(4-methylpiperazin-1-yl)ethoxy]phenyl}-6-(4-fluorophenyl)thieno[2,3-d]pyrimidin-4-yl]oxy}-3-(2-{[2-(2-methoxyphenyl)pyrimidin-4-yl]methoxy}phenyl)propanoate] | 3.82e-07 M | 135.2 fold | 0.206 µM |  | 
2 | COc1ccccc1-c1nccc(COc2ccccc2CC(Oc2ncnc3sc(-c4ccc(F)cc4)c(-c4ccc(OCCN5CCN(C)CC5)c(Cl)c4C)c23)C(=O)OCC(F)(F)F)n1 [Example 808, 2,2,2-trifluoroethyl (2R)-2-{[(5Sa)-5-{3-chloro-2-methyl-4-[2-(4-methylpiperazin-1-yl)ethoxy]phenyl}-6-(4-fluorophenyl)thieno[2,3-d]pyrimidin-4-yl]oxy}-3-(2-{[2-(2-methoxyphenyl)pyrimidin-4-yl]methoxy}phenyl)propanoate] |  | 155 fold |  | 1.72e-07 M | 0.01 µM
3 | COc1ccccc1-c1nccc(COc2ccccc2CC(Oc2ncnc3sc(-c4ccc(F)cc4)c(-c4ccc(OCCN5CCN(C)CC5)c(Cl)c4C)c23)C(=O)OCOC(=O)C(C)(C)C)n1 [Example 810, {[(2R)-2-{[(5Sa)-5-{3-chloro-2-methyl-4-[2-(4-methylpiperazin-1-yl)ethoxy]phenyl}-6-(4-fluorophenyl)thieno[2,3-d]pyrimidin-4-yl]oxy}-3-(2-{[2-(2-methoxyphenyl)pyrimidin-4-yl]methoxy}phenyl)propanoyl]oxy}methyl 2,2-dimethylpropanoate] |  | 122.4 fold |  | 4.2e-07 M | 0.001 µM
4 | COc1ccccc1-c1nccc(COc2ccccc2CC(Oc2ncnc3sc(-c4ccc(F)cc4)c(-c4ccc(OCCN5CCN(C)CC5)c(Cl)c4C)c23)C(=O)OCc2oc(=O)oc2C)n1 [Example 811, (5-methyl-2-oxo-1,3-dioxol-4-yl)methyl (2R)-2-{[(5Sa)-5-{3-chloro-2-methyl-4-[2-(4-methylpiperazin-1-yl)ethoxy]phenyl}-6-(4-fluorophenyl)thieno[2,3-d]pyrimidin-4-yl]oxy}-3-(2-{[2-(2-methoxyphenyl)pyrimidin-4-yl]methoxy}phenyl)propanoate] |  | 117.6 fold |  | 8.55e-09 M | 0.002 µM
5 | COc1ccccc1-c1nccc(COc2ccccc2CC(Oc2ncnc3sc(-c4ccc(F)cc4)c(-c4ccc(OCCN5CCN(C)CC5)c(Cl)c4C)c23)C(=O)OCC(=O)N(C)C)n1 [Example 812, 2-(dimethylamino)-2-oxoethyl (2R)-2-{[(5Sa)-5-{3-chloro-2-methyl-4-[2-(4-methylpiperazin-1-yl)ethoxy]phenyl}-6-(4-fluorophenyl)thieno[2,3-d]pyrimidin-4-yl]oxy}-3-(2-{[2-(2-methoxyphenyl)pyrimidin-4-yl]methoxy}phenyl)propanoate] |  | 136 fold |  | 6.51e-07 M | 0.103 µM
6 | COCCOCCOC(=O)C(Cc1ccccc1OCc1ccnc(-c2ccccc2OC)n1)Oc1ncnc2sc(-c3ccc(F)cc3)c(-c3ccc(OCCN4CCN(C)CC4)c(Cl)c3C)c12 [Example 814, 2-(2-methoxyethoxy)ethyl (2R)-2-{[(5Sa)-5-{3-chloro-2-methyl-4-[2-(4-methylpiperazin-1-yl)ethoxy]phenyl}-6-(4-fluorophenyl)thieno[2,3-d]pyrimidin-4-yl]oxy}-3-(2-{[2-(2-methoxyphenyl)pyrimidin-4-yl]methoxy}phenyl)propanoate] |  | 118.5 fold |  | 6.39e-07 M | 0.314 µM
